In data set [1] the target is T1, Tumor necrosis factor receptor superfamily member 6 (Homo sapiens) (UniProt P25445).
T1 sequence (whole entry): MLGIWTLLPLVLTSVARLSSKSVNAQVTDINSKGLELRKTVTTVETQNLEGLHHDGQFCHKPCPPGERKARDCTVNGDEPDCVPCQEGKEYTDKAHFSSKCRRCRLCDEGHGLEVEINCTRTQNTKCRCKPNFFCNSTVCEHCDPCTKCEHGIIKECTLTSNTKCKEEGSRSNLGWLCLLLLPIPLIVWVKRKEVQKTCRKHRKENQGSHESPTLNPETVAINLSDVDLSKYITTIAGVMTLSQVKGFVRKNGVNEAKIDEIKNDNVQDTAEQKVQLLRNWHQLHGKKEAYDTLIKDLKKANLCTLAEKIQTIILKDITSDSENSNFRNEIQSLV
Nature of the data set: Inhibition of s-CD95L(unknown origin)-stimulated cell migration of human MDA-MB-231 cells at 10 uM incubated for 24 hrs by Giemsa-staining based assay.

The next data set is filed under the species Homo sapiens. Nature of the data set: Selectivity ratio of IC50 for human full length HA-tagged CD95/FADD (unknown origin) protein-protein interaction to IC50 for human full length HA-tagged CD95/human full length Myc-tagged PLCgamma1 protein-protein interaction.
Data set [2] can be described thus: Inhibition of human full length HA-tagged CD95/FADD (unknown origin) protein-protein interaction transfected in HEK293T cells incubated for 4 hrs by renilla luciferase based protein-fragment complementation assay. Type of data set: cell-based.
A short description of data set [3]: Inhibition of human full length HA-tagged CD95/human full length Myc-tagged PLCgamma1 protein-protein interaction transfected in HEK293T cells incubated for 4 hrs by renilla luciferase based protein-fragment complementation assay. Type of data set: cell-based.
The target in data set [4] is T1, Tumor necrosis factor receptor superfamily member 6 (Homo sapiens). Nature of the data set: Inhibition of s-CD95L(unknown origin)-stimulated cell migration of human MDA-MB-231 cells at 10 uM incubated for 24 hrs by Boyden chambers assay. Type of data set: cell-based.
For data set [5] the target is unchanged. Nature of the data set: Inhibition of s-CD95L(unknown origin)-stimulated cell migration of human Th17 cells at 10 uM incubated for 24 hrs by Boyden chambers assay.
Another data set concerns CCRF-CEM. Nature of the data set: Cytotoxicity in human CEM cells assessed as reduction in cell viability incubated for 24 hrs by MTT assay. Type of data set: cell-based. For orientation: Formazan colour is commonly taken as a measure of viable cells.
In data set [6] the target is T1, Tumor necrosis factor receptor superfamily member 6 (Homo sapiens). Nature of the data set: Inhibition of s-CD95L(unknown origin)-stimulated cell migration of human MDA-MB-231 cells at 1 uM incubated for 24 hrs by Giemsa-staining based assay.
Data set [7] can be described thus: Half life in human whole blood. Format: ADME, tissue-based.
In data set [8] the target is T1, Tumor necrosis factor receptor superfamily member 6 (Homo sapiens). Nature of the data set: Inhibition of s-CD95L(unknown origin)-stimulated cell migration of human MDA-MB-231 cells at 1 uM incubated for 24 hrs by Boyden chambers assay. Format: cell-based.
Data set [9] has the same target. Nature of the data set: Inhibition of s-CD95L(unknown origin)-stimulated cell migration of human Th17 cells at 1 uM incubated for 24 hrs by Boyden chambers assay.
Data set [10] addresses T2, 1-phosphatidylinositol 4,5-bisphosphate phosphodiesterase gamma-1 (Homo sapiens, UniProt P19174).
T2 sequence (P19174 whole entry): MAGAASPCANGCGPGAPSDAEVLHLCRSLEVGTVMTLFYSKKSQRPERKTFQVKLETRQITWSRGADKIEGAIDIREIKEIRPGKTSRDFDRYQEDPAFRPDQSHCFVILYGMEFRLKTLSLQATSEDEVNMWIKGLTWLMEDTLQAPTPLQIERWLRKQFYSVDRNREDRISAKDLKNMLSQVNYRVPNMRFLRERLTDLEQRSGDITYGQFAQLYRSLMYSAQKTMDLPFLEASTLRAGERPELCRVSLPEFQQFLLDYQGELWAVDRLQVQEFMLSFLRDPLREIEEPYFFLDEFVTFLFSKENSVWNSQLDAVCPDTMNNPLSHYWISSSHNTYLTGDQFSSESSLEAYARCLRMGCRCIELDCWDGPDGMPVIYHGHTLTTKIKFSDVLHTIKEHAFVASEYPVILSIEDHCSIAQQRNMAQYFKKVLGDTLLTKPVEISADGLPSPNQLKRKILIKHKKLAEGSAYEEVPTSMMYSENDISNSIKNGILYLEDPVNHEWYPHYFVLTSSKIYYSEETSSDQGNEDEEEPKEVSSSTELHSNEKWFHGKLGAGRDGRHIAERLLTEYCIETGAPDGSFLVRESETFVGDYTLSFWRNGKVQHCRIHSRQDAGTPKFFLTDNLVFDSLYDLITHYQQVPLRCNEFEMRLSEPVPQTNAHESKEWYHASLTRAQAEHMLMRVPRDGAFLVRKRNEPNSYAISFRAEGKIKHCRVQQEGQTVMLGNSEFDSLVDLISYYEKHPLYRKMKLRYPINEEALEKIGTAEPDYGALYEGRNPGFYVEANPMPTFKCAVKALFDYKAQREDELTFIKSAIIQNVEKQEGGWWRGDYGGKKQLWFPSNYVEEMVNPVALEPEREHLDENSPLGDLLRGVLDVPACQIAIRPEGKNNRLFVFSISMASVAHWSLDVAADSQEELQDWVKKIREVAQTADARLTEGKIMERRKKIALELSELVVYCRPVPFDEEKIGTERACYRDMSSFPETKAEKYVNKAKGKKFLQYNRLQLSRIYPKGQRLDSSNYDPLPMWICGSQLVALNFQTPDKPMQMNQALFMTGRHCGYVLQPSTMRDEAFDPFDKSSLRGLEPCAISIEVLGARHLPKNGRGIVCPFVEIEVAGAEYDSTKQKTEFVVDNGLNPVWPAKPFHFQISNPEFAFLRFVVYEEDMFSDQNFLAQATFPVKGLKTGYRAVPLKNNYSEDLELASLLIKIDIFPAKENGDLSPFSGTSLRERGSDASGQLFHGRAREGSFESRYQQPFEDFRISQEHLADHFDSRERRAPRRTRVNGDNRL
Nature of the data set: (§1) Binding affinity to human full length Myc-tagged PLCgamma1 transfected in HEK293T cells by pull down assay. Format: cell-based.

The target in data set [11] is T3, 1-phosphatidylinositol 4,5-bisphosphate phosphodiesterase gamma-1 (Homo sapiens) (UniProt P19174).
T3 sequence (whole entry): T2 sequence (P19174 whole entry)
Described as §1. Type of data set: cell-based.

The source made the active and inactive calls. The rule behind the calls is not given here.

The term IC50 denotes the midpoint of a concentration-inhibition curve. `N=C(N)NCCCCC(=O)N(CCNC(=O)[C@H](Cc1c[nH]cn1)N(CCNC(=O)[C@H](CCCNC(=N)N)N(CCN)C(=O)CCS)C(=O)CCCCCN)[C@@H](CCCCN)C(N)=O`: the inhibition result in data set [1], in data set [4] and in data set [5] was “Active” each time. Moreover, the Ratio IC50 in the data set filed under Homo sapiens was 50. In addition, the values for the IC50 in data set [2] (read-out: IC50) and in [3] were 3800 µM and 75 µM, respectively.

Take `CCCCCCCCCCCCCCCCCC(=O)N(CCN)[C@@H](CCCNC(=N)N)C(=O)NCCN(C(=O)CCCCCN)[C@@H](Cc1c[nH]cn1)C(=O)NCCN(C(=O)CCCCNC(=N)N)[C@@H](CCCCN)C(N)=O.O=C(O)C(F)(F)F.O=C(O)C(F)(F)F.O=C(O)C(F)(F)F.O=C(O)C(F)(F)F.O=C(O)C(F)(F)F`: the Activity entry with CCRF-CEM was “Toxic”. Further, the Ratio IC50 in the data set listed under Homo sapiens came out at 1.1. Besides, the half-maximal inhibitory concentration (IC50) was 39 µM in data set [2] (read-out: IC50) and 35 µM in data set [3].

Usually half-life stands for how long it takes for the measured level to halve. As to H-TCRKHRK-OH, the inhibition entry in data set [6], in [8] and in data set [9] was “Active” in each case. Further, in the data set filed under Homo sapiens, the Ratio IC50 is more than 100. For the same compound, the figures for the IC50 entry in data set [2] and in data set [3] were “Not Active” and 35 µM, respectively. In data set [7], the half-life lay in the range of 3 to 3.4 h.

The term EC50 denotes the concentration giving half of the maximal effect. Read a low EC50 as greater potency. In data set [10], `C[C@@H](O)[C@H](NC(=O)CCCC[C@@H]1SC[C@@H]2NC(=O)N[C@@H]21)C(=O)NCCN(C(=O)CCS)[C@@H](CCCNC(=N)N)C(=O)NCCN(C(=O)CCCCCN)[C@@H](Cc1c[nH]cn1)C(=O)NCCN(C(=O)CCCCNC(=N)N)[C@@H](CCCCN)C(N)=O` came in with an EC50 of 25 to 50 µM.

Take `N=C(N)NCCCCC(=O)N(CCNC(=O)[C@@H](N)CS)[C@@H](CCCCN)C(=O)NCCN(C(=O)CCc1c[nH]cn1)[C@@H](CCCNC(=N)N)C(=O)NCCNC(=O)CCCCCN`: in the data set filed under Homo sapiens, the Ratio IC50 is 1.1. Moreover, the concentration for half-maximal inhibition (IC50) in [2] (read-out: IC50) came out at 448 µM; in data set [3], 400 µM.

Turning to `N=C(N)NCCCCC(=O)N(CCNC(=O)[C@H](Cc1c[nH]cn1)N(CCNC(=O)[C@H](CCCNC(=N)N)N(CCN)C(=O)CCCC[C@@H]1SC[C@@H]2NC(=O)N[C@@H]21)C(=O)CCCCCN)[C@@H](CCCCN)C(N)=O`, the outcome in [11] was Active.

As for `C[C@@H](O)CC(=O)N(CCN)[C@@H](CS)C(=O)NCCN(C(=O)CCCCNC(=N)N)[C@@H](CCCCN)C(=O)NCCN(C(=O)CCc1c[nH]cn1)[C@@H](CCCNC(=N)N)C(=O)NCCNC(=O)CCCCCN`, the Ratio IC50 in the data set listed under Homo sapiens amounted to 1.4. Further, the IC50 in data set [2] (read-out: IC50) turned out to be 319 µM; in [3], 229 µM.

`C[C@@H](O)[C@H](N)C(=O)NCCN(C(=O)CCS)[C@@H](CCCNC(=N)N)C(=O)NCCN(C(=O)CCCCCN)[C@@H](Cc1c[nH]cn1)C(=O)NCCN(C(=O)CCCCNC(=N)N)[C@@H](CCCCN)C(N)=O`: the inhibition entry in data set [1], in data set [4] and in data set [5] was “Active” throughout. The Ratio IC50 in the data set listed under Homo sapiens was more than 100. Further, the concentration for half-maximal inhibition (IC50) entry in data set [2] was “Not Active”; in [3], 77 µM. Also, the half-life in data set [7] was 11 to 11.1 h.

`C[C@@H](O)CC(=O)N[C@@H](CS)C(=O)NCCN(C(=O)CCCCNC(=N)N)[C@@H](CCCCN)C(=O)NCCN(C(=O)CCc1c[nH]cn1)[C@@H](CCCNC(=N)N)C(=O)NCCNC(=O)CCCCCN`: the Ratio IC50 in the data set filed under Homo sapiens was 2. For the same compound, the IC50 in data set [2] (read-out: IC50) stood at 629 µM; in data set [3] it was 308 µM.

These data come from ChEMBL document CHEMBL4433261, “Synthesis of peptidomimetics and chemo-biological tools for CD95/PLCγ1 interaction analysis” (Bioorg Med Chem Lett, 2019).
